Legend:
Format in all cases: in vivo
[1] = test system: Hordeum murinum; test: Post-emergence herbicidal action, HORMU; set-up: key: % herbicidal action: 100 = plants died, 0 = like control; conditions: post-emergence, dosage 80 g/ha
Protocol: (§1) [table] 2. Post-Emergence Herbicidal Action Against Harmful Plants Seeds of monocotyledonous and dicotyledonous weed and crop plants are laid out in sandy loam soil in wood-fiber pots, covered with soil and cultivated in a greenhouse under good growth conditions. 2 to 3 weeks after sowing, the test plants are treated at the one-leaf stage. The compounds of the invention, formulated in the form of wettable powders (WP) or as emulsion concentrates (EC), are then sprayed onto the green parts of the plants in the form of an aqueous suspension or emulsion at a water application rate equating to 600 to 800 l/ha, with addition of 0.2% wetting agent. After the test plants have been left to stand in the greenhouse under optimal growth conditions for about 3 weeks, the action of the preparations is assessed visually in comparison to untreated controls (herbicidal action in percent (%): 100% activity=the plants have died, 0% activity=like control plants). […] The tables below illustrate, in an exemplary manner, the post-emergence herbicidal action of the compounds according to the invention, the herbicidal activity being stated in percent. In the experiments that follow, herbicidal action of numerous inventive compounds and the known compounds that are structurally closest from D1 (WO 2012/028579 A1) and D2 (WO 2018/202535 A1) were compared under the above-specified conditions by the pre-emergence and post-emergence method. The example numbers given in the tables relate to the compounds disclosed in the respective documents. In addition to the compounds disclosed in D1 and D2, the following compounds V-1 to V-14 that are encompassed by D1 or D2 but are not compounds specified therein were used in the comparative experiments: • V-1: 2-(methylsulfanyl)-3-(methylsulfinyl)-N-(1-methyl-1H-tetrazol-5-yl)-4-(trifluoromethyl)benzamide • V-2: 2-(methylsulfanyl)-3-(methylsulfonyl)-N-(1-methyl-1H-tetrazol-5-yl)-4-(trifluoromethyl)benzamide • V-3: 2,3-bis(ethylsulfanyl)-N-(1-methyl-1H-tetrazol-5-yl)-4-(trifluoromethyl)benzamide • V-4: 2-chloro-3-(ethylsulfanyl)-N-(1-methyl-1H-tetrazol-5-yl)-4-(trifluoromethyl)benzamide • V-5: 2-chloro-4-iodo-3-(methylsulfanyl)-N-(1-methyl-1H-tetrazol-5-yl)benzamide • V-6: 2-chloro-4-iodo-3-(methylsulfinyl)-N-(1-methyl-1H-tetrazol-5-yl)benzamide • V-7: 2-chloro-4-iodo-3-(methylsulfonyl)-N-(1-methyl-1H-tetrazol-5-yl)benzamide • V-8: 2-bromo-3-(methylsulfanyl)-N-(1-methyl-1H-tetrazol-5-yl)-4-(trifluoromethyl)benzamide • V-9: 2-bromo-3-(methylsulfinyl)-N-(1-methyl-1H-tetrazol-5-yl)-4-(trifluoromethyl)benzamide • V-10: 2-bromo-3-(methylsulfonyl)-N-(1-methyl-1H-tetrazol-5-yl)-4-(trifluoromethyl)benzamide • V-11: 2-bromo-3-(ethylsulfanyl)-N-(1-methyl-1H-tetrazol-5-yl)-4-(trifluoromethyl)benzamide • V-12: 2-bromo-3-(ethylsulfinyl)-N-(1-methyl-1H-tetrazol-5-yl)-4-(trifluoromethyl)benzamide • V-13: 2-bromo-3-(ethylsulfonyl)-N-(1-methyl-1-1H-tetrazol-5-yl)-4-(trifluoromethyl)benzamide • V-14: 2-cyclopropyl-3-(ethylsulfanyl)-N-(1-methyl-1H-tetrazol-5-yl)-4-(trifluoromethyl)benzamide Herbicidal Pre-Emergence Action: […]

[2] = test system: Lolium rigidum; test: Post-emergence herbicidal action, LOLRI; conditions: dosage 80 g/ha
Protocol: as §1

[3] = test system: Digitaria sanguinalis; test: Post-emergence herbicidal action, DIGSA; set-up: key: % herbicidal action: 100 = plants died, 0 = like control; conditions: post-emergence, dosage 80 g/ha
Protocol: as §1

[4] = test system: Digitaria sanguinalis; test: Pre-emergence herbicidal action, DIGSA; conditions: dosage 320 g/ha, scored visually after 3 weeks vs untreated controls (100% = plants have died)
From the text: (§2) 1. Pre-Emergence Herbicidal Action Against Harmful Plants Seeds of monocotyledonous and dicotyledonous weed plants and crop plants are laid out in sandy loam soil in wood-fiber pots and covered with soil. The compounds of the invention, formulated in the form of wettable powders (WP) or as emulsion concentrates (EC), are then applied to the surface of the covering soil in the form of an aqueous suspension or emulsion at a water application rate equating to 600 to 800 l/ha, with addition of 0.2% wetting agent. After the treatment, the pots are placed in a greenhouse and kept under good growth conditions for the trial plants. The damage to the test plants is scored visually after a test period of 3 weeks by comparison with untreated controls (herbicidal activity in percent (%): 100% activity=the plants have died, 0% activity=like control plants). […] The tables below illustrate, in an exemplary manner, the […] herbicidal action of the compounds according to the invention, the herbicidal activity being stated in percent. [table] In the experiments that follow, herbicidal action of numerous inventive compounds and the known compounds that are structurally closest from D1 (WO 2012/028579 A1) and D2 (WO 2018/202535 A1) were compared under the above-specified conditions by the pre-emergence and post-emergence method. The example numbers given in the tables relate to the compounds disclosed in the respective documents. In addition to the compounds disclosed in D1 and D2, the following compounds V-1 to V-14 that are encompassed by D1 or D2 but are not compounds specified therein were used in the comparative experiments: • V-1: 2-(methylsulfanyl)-3-(methylsulfinyl)-N-(1-methyl-1H-tetrazol-5-yl)-4-(trifluoromethyl)benzamide • V-2: 2-(methylsulfanyl)-3-(methylsulfonyl)-N-(1-methyl-1H-tetrazol-5-yl)-4-(trifluoromethyl)benzamide • V-3: 2,3-bis(ethylsulfanyl)-N-(1-methyl-1H-tetrazol-5-yl)-4-(trifluoromethyl)benzamide • V-4: 2-chloro-3-(ethylsulfanyl)-N-(1-methyl-1H-tetrazol-5-yl)-4-(trifluoromethyl)benzamide • V-5: 2-chloro-4-iodo-3-(methylsulfanyl)-N-(1-methyl-1H-tetrazol-5-yl)benzamide • V-6: 2-chloro-4-iodo-3-(methylsulfinyl)-N-(1-methyl-1H-tetrazol-5-yl)benzamide • V-7: 2-chloro-4-iodo-3-(methylsulfonyl)-N-(1-methyl-1H-tetrazol-5-yl)benzamide • V-8: 2-bromo-3-(methylsulfanyl)-N-(1-methyl-1H-tetrazol-5-yl)-4-(trifluoromethyl)benzamide • V-9: 2-bromo-3-(methylsulfinyl)-N-(1-methyl-1H-tetrazol-5-yl)-4-(trifluoromethyl)benzamide • V-10: 2-bromo-3-(methylsulfonyl)-N-(1-methyl-1H-tetrazol-5-yl)-4-(trifluoromethyl)benzamide • V-11: 2-bromo-3-(ethylsulfanyl)-N-(1-methyl-1H-tetrazol-5-yl)-4-(trifluoromethyl)benzamide • V-12: 2-bromo-3-(ethylsulfinyl)-N-(1-methyl-1H-tetrazol-5-yl)-4-(trifluoromethyl)benzamide • V-13: 2-bromo-3-(ethylsulfonyl)-N-(1-methyl-1-1H-tetrazol-5-yl)-4-(trifluoromethyl)benzamide • V-14: 2-cyclopropyl-3-(ethylsulfanyl)-N-(1-methyl-1H-tetrazol-5-yl)-4-(trifluoromethyl)benzamide Herbicidal Pre-Emergence Action: […]

[5] = test system: Cyperus esculentus; test: Pre-emergence herbicidal action, CYPES; set-up: key: % activity: 100 = plants have died, 0 = like control plants; conditions: comparative experiment
How it was run: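 Visual scoring after 3 weeks in the greenhouse, relative to untreated pots, gave percent activity, where 100% means dead plants and 0% equals controls. Treatment was a pre-emergence soil-surface spray of WP or EC formulations in water (600 to 800 l/ha, 0.2% wetting agent) over seeds covered in sandy loam.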

[6] = test system: Lolium multiflorum; test: Post-emergence herbicidal action, LOLMU; set-up: key: % herbicidal action: 100 = plants died, 0 = like control; conditions: post-emergence; for Herbicidal action against LOLMU: comparative experiment; for herbicidal action LOLMU: dosage 80 g/ha
Protocol: as §1

[7] = test system: Alopecurus myosuroides; test: Pre-emergence herbicidal action, ALOMY; set-up: key: % activity: 100 = plants have died, 0 = like control plants; conditions: comparative experiment
From the text: as §2

| Compound | herbicidal action HORMU [1] [%] | herbicidal action LOLRI [2] [%] | also measured |
| --- | --- | --- | --- |
| CCn1nnnc1NC(=O)c1ccc(C(F)(F)F)c(C[S+]([O-])CC)c1Cl (stereo not drawn) [Example 2-300] | 90 | 80 | herbicidal action DIGSA [3]: 100%; herbicidal activity DIGSA [4]: 100% |
| CC[S+]([O-])Cc1c(C(F)(F)F)ccc(C(=O)Nc2nnnn2C)c1Cl (racemic) [Example 1-300] | 90 | 90 | herbicidal action DIGSA [3]: 100%; herbicidal activity DIGSA [4]: 100% |
| CSc1c(C(=O)Nc2nnnn2C)ccc(C(F)(F)F)c1C[S+](C)[O-] (stereo not drawn) [Example 1-162] | 90 | 80 | Herbicidal action against CYPES ([5]; 20 g of a.i./ha): 70 |
| COCCSCc1c(C(F)(F)F)ccc(C(=O)Nc2nnnn2C)c1Cl [Example 1-305] | 90 | 100 |  |
| Cn1nnnc1NC(=O)c1ccc(C(F)(F)F)c(CSCC2CC2)c1Cl [Example 1-314] | 100 | 90 |  |
| Cn1nnnc1NC(=O)c1ccc(C(F)(F)F)c(CSC2CC2)c1Cl [Example 1-302] | 90 | 90 |  |
| CSCc1c(I)ccc(C(=O)Nc2nnnn2C)c1Cl [Example 1-362] | 100 | 80 | Herbicidal action against CYPES ([5]; 20 g of a.i./ha): 80 |
| Cn1nnnc1NC(=O)c1ccc(C(F)(F)F)c(C[S+]([O-])C2CC2)c1Cl (racemic) [Example 1-303] | 100 | 90 |  |
| Cn1nnnc1NC(=O)c1ccc(C(F)(F)F)c(C[S+]([O-])CC(F)(F)F)c1Cl (racemic) [Example 1-312] | 80 |  | herbicidal action DIGSA [3]: 100%; herbicidal activity DIGSA [4]: 100% |
| CCS(=O)(=O)c1c(C(F)(F)F)ccc(C(=O)Nc2nnnn2C)c1Br [Example V-13, 2-bromo-3-(ethylsulfonyl)-N-(1-methyl-1-1H-tetrazol-5-yl)-4-(trifluoromethyl)benzamide, reference compound] |  |  | Herbicidal action against LOLMU ([6]; 20 g of a.i./ha): 0; Herbicidal action against ALOMY ([7]; 80 g of a.i./ha): 0 |
| CCn1nnnc1NC(=O)c1ccc(C(F)(F)F)c(CSCCOC)c1Cl [Example 2-305] | 100 | 80 |  |
| CCCn1nnnc1NC(=O)c1ccc(C(F)(F)F)c(C[S+](C)[O-])c1SC (stereo not drawn) [Example 3-162] | 90 | 80 |  |
| CC[S+]([O-])Cc1c(C(F)(F)F)ccc(C(=O)Nc2nnnn2C)c1Br (racemic) [Example 1-384] |  |  | Herbicidal action against CYPES ([5]; 80 g of a.i./ha): 100; herbicidal action LOLMU [6]: 90%; Herbicidal action against ALOMY ([7]; 80 g of a.i./ha): 100 |
| Cn1nnnc1NC(=O)c1ccc(I)c(C[S+](C)[O-])c1Cl (racemic) [Example 1-363] | 90 | 80 | herbicidal action DIGSA [3]: 100%; herbicidal activity DIGSA [4]: 100%; Herbicidal action against ALOMY ([7]; 20 g of a.i./ha): 50 |
| CCSCc1c(C(F)(F)F)ccc(C(=O)Nc2nnnn2C)c1Cl [Example 1-299] |  |  | Herbicidal action against CYPES ([5]; 20 g of a.i./ha): 90; Herbicidal action against LOLMU ([6]; 5 g of a.i./ha): 70; herbicidal action LOLMU [6]: 90%; Herbicidal action against ALOMY ([7]; 20 g of a.i./ha): 80 |
| Cn1nnnc1NC(=O)c1ccc(C(F)(F)F)c(CS(=O)(=O)C2CC2)c1Cl [Example 1-304] | 80 | 80 |  |
| CCS(=O)(=O)Cc1c(C(F)(F)F)ccc(C(=O)Nc2nnnn2C)c1Br [Example 1-385] |  |  | Herbicidal action against LOLMU ([6]; 20 g of a.i./ha): 50; herbicidal action LOLMU [6]: 80%; Herbicidal action against ALOMY ([7]; 80 g of a.i./ha): 100 |

Reference: patent publication US12492173B2, “Herbicidal substituted N-tetrazolyl aryl carboxamides” (Bayer Aktiengesellschaft, priority 2019, dated 2025)
